Here are results for seven compounds from patent publication US10563171B2, “Method for inducing differentiation of pluripotent stem cells into germ cells” (Kyoto University, priority 2015, dated 2020).

One assay relates to iMeLCs. In words: Induction of BTAG positive cells (hPGCLCs) from iMeLCs in floating aggregates. Type of assay: cell-based, human. As to conditions: for role in induction of BTAG positive cells from iMeLCs: combination of BMP4, LIF, SCF and EGF changed, FIG. 11A-D. As for the experimental part:
(§1) Initial mesoderm-like cells (iMeLCs) were induced by seeding hiPSCs maintained in StemFit™ in a 12 well plate coated with human plasma fibronectin (Millipore, FC010) at 1.0-2.0×10^5 cells per well in GK15 medium [GMEM containing 15% KSR, 0.1 mM NEAA, 2 mM L-glutamine, 1 mM sodium pyruvate and 0.1 mM 2-mercaptoethanol (Life Technologies)] containing 50 ng/ml activin A, 3 μM CHIR99021 and 10 μM ROCK inhibitor (Y-27632; Wako Pure Chemical Industries). The hiPSCs were induced by seeding in a low-cell-binding V-bottom 96 wellplate (Thermo, 81100574) at 3.0×10^3 cells per well in GK15 added with 1000 U/ml LlF (Millipore, #LIF1005), 200 ng/ml BMP 4,100 ng/ml SCF (R&D Systems, 455-MC), 50 ng/ml EGF (R&D Systems, 236-EG), and 10 μM ROCK inhibitor. For investigation of conditions and induction of iMeLCs or hPGCLC, PD173074 (StemGent, #04-0008) or LDN193189 (StemGent, #04-0074) was respectively added. Other than the above, WNT3A (R&D Systems, 5036-WN) was used instead of CHIR99021, and BMP2 (R&D Systems, 355-BM), BMP7 (R&D Systems, 354-BP), or BMP8A (R&D Systems, 1073-BP) was used instead of BMP4.
(§2) Floating aggregates containing hPGCLCs were separated by treating with 0.05% Trypsin-EDTA/PBS at 37° C. for 10 min. After washing with PBS containing FBS and 0.1% BSA, the cell suspension was filtered by a cell strainer (BD Biosciences) and centrifuged to remove cell aggregates. The collected cells were suspended in FACS buffer (0.1% BSA in PBS) and analyzed by a flow cytometer (ARIA III; BD Biosciences). For the analysis of hPGCLCs or hiPSCs, the separated cells were stained with APC-conjugated anti-human CD326 (EpCAM), BV421-conjugated anti-human/mouse CD49f, PE-conjugated anti-TRA-1-60, or FITC-conjugated anti-SSEA-4. Furthermore, intracellular staining using Alexa fluor 647-conjugated anti-OCT3/4, Alexa Fluor 647-conjugated anti-NANOG or V450-conjugated anti-SOX2 was performed using BD cytofix/Cytoferm Fixation/Permeabilization kit (BD, 554714) and according to the Manufacturer's instructions.

In another assay the test system is BTAG 585B1-868 hiPSCs. The experiment in a line: Induction of iMeLCs from hiPSCs having induction capacity into BTAG positive cells (FACS of BTAG(+) cells). Type of assay: cell-based, human. Here is the method:
as §1, §2

With LIF: leukemia inhibitory factor, in the assay on iMeLCs, the “role in induction of BTAG positive cells from iMeLCs” value (“role in induction” for short) is recorded as “maintaining rather than inducing”.

In the case of `CCN(CC)CCCCNc1ncc2cc(-c3cc(OC)cc(OC)c3)c(NC(=O)NC(C)(C)C)nc2n1` [PD173074, reference compound], the “number of BTAG-positive cells per cell aggregate” value with BTAG 585B1-868 hiPSCs (FGFR signaling inhibited during induction of iMeLCs, FIG. 10G, 10H) was “increased”. With EGF: epithelial cell growth factor, the “role in induction” value in the assay on iMeLCs was “maintaining rather than inducing”. As for SCF: stem cell factor, the “role in induction” value in the assay on iMeLCs was “maintaining rather than inducing”. In the case of `c1ccc2c(-c3cnn4cc(-c5ccc(N6CCNCC6)cc5)cnc34)ccnc2c1` [LDN193189, reference compound], in the assay with iMeLCs (FIG. 11B), the “effect of BMP4 on BTAG positive cell induction in presence of ALK2/3 inhibitor” value is recorded as “blocked”.

Take bFGF: basic fibroblast growth factor: the “effect of signaling on iMeLCs induction” value with BTAG 585B1-868 hiPSCs (added during induction of iMeLC, FIG. 10D, 10E) was “acts negatively”.

Take `Cc1c[nH]c(-c2cnc(NCCNc3ccc(C#N)cn3)nc2-c2ccc(Cl)cc2Cl)n1` [CHIR, 6-[2-[4-(2,4-Dichlorophenyl)-5-(4-methyl-1H-imidazol-2-yl)pyrimidin-2-ylamino]ethylamino]pyridine-3-carbonitrile, reference compound]: the “concentration essential for the induction of iMeLCs having induction capacity into BTAG positive cells” value in the assay on BTAG 585B1-868 hiPSCs (concentration changed during induction of iMeLC from hiPSCs, FIG. 10C) fell in the range of 3 to 5 µM.
